Test results published in US7851474B2, “Dipiperazinyl ketones and related analogues” (Neurogen Corporation, priority 2005, dated 2010).

Each compound was assayed against T1, chimeric human H3 receptor (Homo sapiens, UniProt Q9Y5N1, E19D) (assay: Chimeric human H3 receptor GTP binding assay (agonist-stimulated GTP-gamma35S binding, Example 7)). Settings: Table II; assay of Example 7; "*" in Ki; read-out: Ki.
T1 construct: made in house; host or cells: Sf9 insect cells (baculovirus infection); P2 membrane preparation
T1 sequence (Q9Y5N1 with tags, fused parts or gaps E19D): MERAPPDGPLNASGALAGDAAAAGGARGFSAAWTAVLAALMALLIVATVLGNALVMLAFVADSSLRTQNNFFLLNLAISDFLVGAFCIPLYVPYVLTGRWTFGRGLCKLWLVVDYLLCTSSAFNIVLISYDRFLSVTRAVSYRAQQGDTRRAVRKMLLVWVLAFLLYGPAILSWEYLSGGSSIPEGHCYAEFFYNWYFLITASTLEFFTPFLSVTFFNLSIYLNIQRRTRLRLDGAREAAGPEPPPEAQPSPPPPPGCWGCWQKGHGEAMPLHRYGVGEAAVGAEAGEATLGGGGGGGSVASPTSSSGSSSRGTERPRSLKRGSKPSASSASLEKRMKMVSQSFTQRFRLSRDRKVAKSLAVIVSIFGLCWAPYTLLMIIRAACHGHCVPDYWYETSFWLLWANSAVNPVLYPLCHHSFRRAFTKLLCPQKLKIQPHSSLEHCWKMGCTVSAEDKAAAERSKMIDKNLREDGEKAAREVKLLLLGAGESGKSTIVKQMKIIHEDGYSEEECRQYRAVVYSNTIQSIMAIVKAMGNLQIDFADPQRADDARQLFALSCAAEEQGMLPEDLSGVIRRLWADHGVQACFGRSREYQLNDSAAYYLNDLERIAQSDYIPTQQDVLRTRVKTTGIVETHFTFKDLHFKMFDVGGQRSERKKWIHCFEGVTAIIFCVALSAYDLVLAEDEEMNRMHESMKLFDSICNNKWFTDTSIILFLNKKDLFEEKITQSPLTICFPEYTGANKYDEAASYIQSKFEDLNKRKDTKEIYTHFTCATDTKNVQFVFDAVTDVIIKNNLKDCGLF
Assay type: biochemical
Outline: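 IC50 values come from non-linear regression of dose-response curves of filter-bound GTP-gamma^35S, counted by scintillation. Membranes were from infected Sf9 cells carrying receptor plus G-protein subunits, 35 μg/tube, with 10 μM GDP present.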
`COc1ccc2cc(-c3ccc(N4CCN(CC(=O)N5CCN(C6CCC6)CC5)CC4)nn3)ccc2c1` [Compound 1029, 3-{4-[2-(4-cyclobutylpiperazin-1-yl)-2-oxoethyl]piperazin-1-yl}-6-(6-methoxy-2-naphthyl)pyridazine] gave a Ki of less than 1 µM.
`CC(C)Oc1cccc(-c2ccc(N3CCN(CC(=O)N4CCN(C5CCC5)CC4)CC3)nn2)c1` [Compound 1030, 3-{4-[2-(4-cyclobutylpiperazin-1-yl)-2-oxoethyl]piperazin-1-yl}-6-(3-isopropoxyphenyl) pyridazine] was tested, and the Ki was less than 1 µM.
`COc1cc(-c2ccc(N3CCN(CC(=O)N4CCN(C5CCC5)CC4)CC3)nn2)cc(OC)c1OC` [Compound 1031, 3-{4-[2-(4-cyclobutylpiperazin-1-yl)-2-oxoethyl]paperazin-1-yl}-6-(3,4,5-trimethoxyphenyl) pyridazine] gave a Ki of less than 1 µM.
`COc1ccc(-c2ccc(N3CCN(CC(=O)N4CCN(C5CCC5)CC4)CC3)nn2)cc1` [Compound 1032, 3-{4-[2-(4-cyclobutylpiperazin-1-yl)-2-oxoethyl]piperazin-1-yl}-6-(4-methoxyphenyl) pyridazine] was tested, and the Ki was less than 1 µM.
Compound `COc1ccc(-c2ccc(N3CCN(CC(=O)N4CCN(C5CCC5)CC4)CC3)nn2)cc1OC` [Compound 1033, 3-{4-[2-(4-cyclobutylpiperazin-1-yl)-2-oxoethyl]piperazin-1-yl}-6-(3,4-dimethoxyphenyl) pyridazine] has a Ki of less than 1 µM.
Compound `CCOc1ccc(-c2ccc(N3CCN(CC(=O)N4CCN(C5CCC5)CC4)CC3)nn2)cc1` [Compound 1034, 3-{4-[2-(4-cyclobutylpiperazin-1-yl)-2-oxoethyl]piperazin-1-yl}-6-(4-ethoxyphenyl)pyridazine] has a Ki of less than 1 µM.
With `O=C(CN1CCN(c2ccc(-c3ccc4c(c3)OCCO4)nn2)CC1)N1CCN(C2CCC2)CC1` [Compound 1035, 3-{4-[2-(4-cyclobutylpiperazin-1-yl)-2-oxoethyl]piperazin-1-yl}-6-(2,3-dihydro-1,4-benzodioxin-6-yl)pyridazine] the Ki was less than 1 µM.
`COc1ccc(-c2ccc(N3CCN(CC(=O)N4CCN(C5CCC5)CC4)CC3)nn2)cc1C` [Compound 1036, 3-{4-[2-(4-cyclobutylpiperazin-1-yl)-2-oxoethyl]piperazin-1-yl}-6-(4-methoxy-3-methylphenyl)pyridazine] was tested, and the Ki was less than 1 µM.
`CCCOc1ccc(-c2ccc(N3CCN(CC(=O)N4CCN(C5CCC5)CC4)CC3)nn2)cc1` [Compound 1037, 3-{4-[2-(4-cyclobutylpiperazin-1-yl)-2-oxoethyl]piperazin-1-yl}-6-(4-propoxyphenyl) pyridazine] showed a Ki of less than 1 µM.
For `COc1ccc(-c2ccc(N3CCN(CC(=O)N4CCN(C5CCC5)CC4)CC3)nn2)c(C)c1` [Compound 1038, 3-{4-[2-(4-cyclobutylpiperazin-1-yl)-2-oxoethyl]piperazin-1-yl}-6-(4-methoxy-2-methylphenyl)pyridazine], the Ki was less than 1 µM.
Compound `COc1ccccc1-c1ccc(N2CCN(CC(=O)N3CCN(C4CCC4)CC3)CC2)nn1` [Compound 1039, 3-{4-[2-(4-cyclobutylpiperazin-1-yl)-2-oxoethyl]piperazin-1-yl}-6-(2-methoxyphenyl) pyridazine] has a Ki of less than 1 µM.
`COc1ccc(C(C)C)cc1-c1ccc(N2CCN(CC(=O)N3CCN(C4CCC4)CC3)CC2)nn1` [Compound 1040, 3-{4-[2-(4-cyclobutylpiperazin-1-yl)-2-oxoethyl]piperazin-1-yl}-6-(5-isopropyl-2-methoxyphenyl) pyridazine] showed a Ki of less than 1 µM.
`COc1ccc(OC)c(-c2ccc(N3CCN(CC(=O)N4CCN(C5CCC5)CC4)CC3)nn2)c1` [Compound 1041, 3-{4-[2-(4-cyclobutylpiperazin-1-yl)-2-oxoethyl]piperazin-1-yl}-6-(2,5-dimethoxyphenyl) pyridazine] showed a Ki of less than 1 µM.
In the case of `COc1ccc(-c2ccc(N3CCN(CC(=O)N4CCN(C5CCC5)CC4)CC3)nn2)c(OC)c1` [Compound 1042, 3-{4-[2-(4-cyclobutylpiperazin-1-yl)-2-oxoethyl]piperazin-1-yl}-6-(2,4-dimethoxyphenyl) pyridazine], the Ki is reported as less than 1 µM.
In the case of `CCOc1ccccc1-c1ccc(N2CCN(CC(=O)N3CCN(C4CCC4)CC3)CC2)nn1` [Compound 1043, 3-{4-[2-(4-cyclobutylpiperazin-1-yl)-2-oxoethyl]piperazin-1-yl}-6-(2-ethoxyphenyl)pyridazine], the Ki is reported as less than 1 µM.
`O=C(CN1CCN(c2ccc(-c3cccc4c3oc3ccccc34)nn2)CC1)N1CCN(C2CCC2)CC1` [Compound 1044, 3-{4-[2-(4-cyclobutylpiperazin-1-yl)-2-oxoethyl]piperazin-1-yl}-6-dibenzo[b,d]furan-4-ylpyridazine] showed a Ki of less than 1 µM.
In the case of `COc1ccc(F)cc1-c1ccc(N2CCN(CC(=O)N3CCN(C4CCC4)CC3)CC2)nn1` [Compound 1045, 3-{4-[2-(4-cyclobutylpiperazin-1-yl)-2-oxoethyl]piperazin-1-yl}-6-(5-fluoro-2-methoxyphenyl) pyridazine], the Ki is reported as less than 1 µM.
With `COc1ccc(C)cc1-c1ccc(N2CCN(CC(=O)N3CCN(C4CCC4)CC3)CC2)nn1` [Compound 1046, 3-{4-[2-(4-cyclobutylpiperazin-1-yl)-2-oxoethyl]piperazin-1-yl}-6-(2-methoxy-5-methylphenyl) pyridazine] the Ki was less than 1 µM.
With `O=C(CN1CCN(c2ccc(-c3ccccc3Oc3ccccc3)nn2)CC1)N1CCN(C2CCC2)CC1` [Compound 1047, 3-{4-[2-(4-cyclobutylpiperazin-1-yl)-2-oxoethyl]piperazin-1-yl}-6-(2-phenoxyphenyl) pyridazine] the Ki was less than 1 µM.
`O=C(CN1CCN(c2ccc(-c3cc(F)ccc3F)nn2)CC1)N1CCN(C2CCC2)CC1` [Compound 1048, 3-{4-[2-(4-cyclobutylpiperazin-1-yl)-2-oxoethyl]piperazin-1-yl}-6-(2,5-difluorophenyl)pyridazine] showed a Ki of less than 1 µM.
Compound `O=C(CN1CCN(c2ccc(-c3ccc(F)c(F)c3)nn2)CC1)N1CCN(C2CCC2)CC1` [Compound 1049, 3-{4-[2-(4-cyclobutylpiperazin-1-yl)-2-oxoethyl]piperazin-1-yl}-6-(3,4-difluorophenyl)pyridazine] has a Ki of less than 1 µM.
For `O=C(CN1CCN(c2ccc(-c3cc(Cl)cc(Cl)c3)nn2)CC1)N1CCN(C2CCC2)CC1` [Compound 1050, 3-{4-[2-(4-cyclobutylpiperazin-1-yl)-2-oxoethyl]piperazin-1-yl}-6-(3,5-dichlorophenyl)pyridazine], the Ki was less than 1 µM.
With `O=C(CN1CCN(c2ccc(-c3ccc(Cl)c(Cl)c3)nn2)CC1)N1CCN(C2CCC2)CC1` [Compound 1051, 3-{4-[2-(4-cyclobutylpiperazin-1-yl)-2-oxoethyl]piperazin-1-yl}-6-(3,4-dichlorophenyl)pyridazine] the Ki was less than 1 µM.
For `O=C(CN1CCN(c2ccc(-c3cc(F)cc(F)c3)nn2)CC1)N1CCN(C2CCC2)CC1` [Compound 1052, 3-{4-[2-(4-cyclobutylpiperazin-1-yl)-2-oxoethyl]piperazin-1-yl}-6-(3,5-difluorophenyl)pyridazine], the Ki was less than 1 µM.
Work on `O=C(CN1CCN(c2ccc(-c3cccc(F)c3F)nn2)CC1)N1CCN(C2CCC2)CC1` [Compound 1053, 3-{4-[2-(4-cyclobutylpiperazin-1-yl)-2-oxoethyl]piperazin-1-yl}-6-(2,3-difluorophenyl)pyridazine] yielded a Ki of less than 1 µM.
Compound `O=C(CN1CCN(c2ccc(-c3cccc(Cl)c3Cl)nn2)CC1)N1CCN(C2CCC2)CC1` [Compound 1054, 3-{4-[2-(4-cyclobutylpiperazin-1-yl)-2-oxoethyl]piperazin-1-yl}-6-(2,3-dichlorophenyl)pyridazine] has a Ki of less than 1 µM.
With `O=C(CN1CCN(c2ccc(-c3ccc(Cl)cc3Cl)nn2)CC1)N1CCN(C2CCC2)CC1` [Compound 1055, 3-{4-[2-(4-cyclobutylpiperazin-1-yl)-2-oxoethyl]piperazin-1-yl}-6-(2,4-dichlorophenyl)pyridazine] the Ki was less than 1 µM.
`O=C(CN1CCN(c2ccc(-c3ccccc3C(F)(F)F)nn2)CC1)N1CCN(C2CCC2)CC1` [Compound 1056, 3-{4-[2-(4-cyclobutylpiperazin-1-yl)-2-oxoethyl]piperazin-1-yl}-6-[2-(trifluoromethyl)phenyl] pyridazine] gave a Ki of less than 1 µM.
`COc1cccc(OC)c1-c1ccc(N2CCN(CC(=O)N3CCN(C4CCC4)CC3)CC2)nn1` [Compound 1057, 3-{4-[2-(4-cyclobutylpiperazin-1-yl)-2-oxoethyl]piperazin-1-yl}-6-(2,6-dimethoxyphenyl) pyridazine] was tested, and the Ki was less than 1 µM.
For `CC(C)c1ccccc1-c1ccc(N2CCN(CC(=O)N3CCN(C4CCC4)CC3)CC2)nn1` [Compound 1058, 3-{4-[2-(4-cyclobutylpiperazin-1-yl)-2-oxoethyl]piperazin-1-yl}-6-(2-isopropylphenyl) pyridazine], the Ki was less than 1 µM.
In the case of `Cc1cccc(C)c1-c1ccc(N2CCN(CC(=O)N3CCN(C4CCC4)CC3)CC2)nn1` [Compound 1059, 3-{4-[2-(4-cyclobutylpiperazin-1-yl)-2-oxoethyl]piperazin-1-yl}-6-(2,6-dimethylphenyl) pyridazine], the Ki is reported as less than 1 µM.
In the case of `O=C(CN1CCN(c2ccc(-c3cc(Cl)ccc3Cl)nn2)CC1)N1CCN(C2CCC2)CC1` [Compound 1060, 3-{4-[2-(4-cyclobutylpiperazin-1-yl)-2-oxoethyl]piperazin-1-yl}-6-(2,5-dichlorophenyl)pyridazine], the Ki is reported as less than 1 µM.
`Cc1cc(C)c(-c2ccc(N3CCN(CC(=O)N4CCN(C5CCC5)CC4)CC3)nn2)c(C)c1` [Compound 1061, 3-{4-[2-(4-cyclobutylpiperazin-1-yl)-2-oxoethyl]piperazin-1-yl}-6-mesitylpyridazine] was tested, and the Ki was less than 1 µM.
With `O=C(CN1CCN(c2ccc(-c3ccc(C(F)(F)F)cc3)nn2)CC1)N1CCN(C2CCC2)CC1` [Compound 1062, 3-{4-[2-(4-cyclobutylpiperazin-1-yl)-2-oxoethyl]piperazin-1-yl}-6-[4-(trifluoromethyl)phenyl] pyridazine] the Ki was less than 1 µM.
